Data on two compounds can be found in patent US7223397B1, “Potentiation of anti-CD38-Immunotoxin cytotoxicity” (priority 1999, dated 2007).

Where two headings read alike, the source gives them in different places.

The test system of experiment [1] is HL-60 cells. As to the kind of experiment: MTS cell viability assay, HL-60 cells. The conditions noted are these: 3 days, presence or absence of 5 nM retinoic acid. Format: cell-based. As for the experimental part:
HL-60 cells were incubated with either immunotoxin alone or in the presence of 5 nM retinoic acid (RA). Increasing concentrations of unconjugated IB4 monoclonal antibody were added to the cells incubated with immunotoxin and retinoic acid. After three days, the cells were assayed for viability with the MTS assay. Briefly, 6.5 mg/ml MTS solution [(3-(4,5-dimethylthiazol-2-yl)-5-(3-carboxymethoxyphenyl)-2-(4-sulfophenyl)-2H-tetrazolium] and 0.5 mM PMS (phenazine methosulfate) solution were mixed at a ratio of 20:1. 20 μl of the combined MTS/PMS solution was placed in each well of a 96 well plate containing samples of the cells to be tested. The plate was incubated for 1–4 hours at 37° C. in a 5% CO2 atmosphere, after which time, the amount of formazan produced by live cells from cellular reduction of MTS was measured by reading the absorbance at 490 nm. The results are shown in FIG. 2.
HL-60 cells were preincubated overnight in either the presence or absence of 5 nM all-trans-retinoic acid. The cells were washed twice and incubated in increasing concentrations of immunotoxin in either the presence or absence of IB4 unconjugated anti-CD38 MoAb. After three days, the cell were assayed for viability.
HL-60 cells were incubated for three days with increasing concentrations of either immunotoxin or gelonin in either the presence or absence of 5 nM retinoic acid. […]

The subject of experiment [2] is HL-60 cells with a mutated RARα gene. The experiment can be described thus: MTS cell viability assay, retinoic acid-resistant HL60R cells. Format: cell-based. Background: Tetrazolium assays rely on reduction of a dye to a coloured formazan, in cell work by metabolically active cells.
Procedure: These cells are resistant to retinoic acid-induced expression of the CD38 antigen due to a point mutation in the retinoic acid receptor alpha (RARα) gene. The cell line was cultured with increasing concentrations of immunotoxin (in ng/ml) under different conditions.
HL-60 cells with a mutated RARα gene that renders the cells resistant to the effects of retinoic acid were treated with immunotoxin in either the presence or absence of 5 nM retinoic acid.
For experiment [3], the system named is CD38. The experiment can be described thus: CD38 expression in tumor cells by flow cytometry after RA treatment. The conditions noted are these: 5 nM RA. The format is cell-based. Here is the method:
Table I lists the potential targets for anti-CD38 bound toxin treatment A number of different lymphoid tumor cell lines were treated with 5 nM all-trans-retinoic acid (RA). Afterwards, the expression of CD38 in untreated versus treated cell was measured by flow cytometry. […] The increase in CD38 expression ranges from 2.5 to 20 fold. Thus, retinoic acid can be used in all of these tumor types to increase the vulnerability of the tumor cells to immunotoxin treatment.
(A flow cytometer gives signals particle by particle.)

The subject of experiment [4] is myeloid and lymphoid leukemia cells. The following applies: retinoic acid 10^−13 M; cited from earlier work.

gelonin: the “toxic effect (MTS cell viability)” value in experiment [1] is given as “no toxic effect”. For the same compound, the “cell death (MTS)” value in experiment [2] (HL60R (mutated RARα), 3 days) is “no appreciable cell death”.
In the case of `CC1=C(/C=C/C(C)=C/C=C/C(C)=C/C(=O)O)C(C)(C)CCC1` [RA, all-trans-retinoic acid], the “cell death (MTS)” value in experiment [2] is listed as “no appreciable cell death”. In addition, the “CD38 after RA treatment” value was 180 ± 20 in experiment [3] (AML cells), 120 ± 30 in experiment [3] (APL cells), 210 ± 10 in experiment [3] (Lymphomas) and 180 ± 25 in experiment [3] (Myelomas). Further, in experiment [4], the “induction of CD38 cell surface antigen expression” value is reported as 4 fold.
